Experiments:
Experiment in all cases: Test D pre-/postemergence controlled growth environment herbicide test
Assay type in all cases: in vivo
Conditions in all cases: scale 0 to 100
[1] = test system: bluegrass (annual bluegrass, Poa annua)
In short: (§1)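 Herbicidal effect, both preemergence (silt loam soil) and postemergence (1- to 4-leaf plants, peat-based medium), was scored 14–21 d post-treatment on a 0–100 control scale relative to untreated plants; applications used a non-phytotoxic solvent formulation with surfactant.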

[2] = test system: speedwell (bird's-eye speedwell, Veronica persica)
In short: as §1

[3] = test system: Russian thistle (Salsola kali)
In short: as §1

[4] = test system: mustard, wild (wild mustard, Sinapis arvensis)
In short: as §1

[5] = test system: lambsquarters (Chenopodium album)
In short: as §1

[6] = test system: wheat, spring (spring wheat, Triticum aestivum)
In short: as §1

Molecule `Cc1cc(=O)n(-c2ccc(F)cc2)nc1Cc1ccnc(C(F)(F)F)c1` [Compound 1, 2-(4-fluorophenyl)-5-methyl-6-[[2-(trifluoromethyl)-4-pyridinyl]methyl]-3(2H)-pyridazinone] has a Plant response rating ([1]; Postemergence, 31 g ai/ha) of 5, a Plant response rating ([1]; Postemergence, 62 g ai/ha) of 5 and a Plant response rating ([1]; Postemergence, 125 g ai/ha) of 10. It also gave a Plant response rating ([1]; Postemergence, 250 g ai/ha) of 10, a Plant response rating ([1]; Postemergence, 500 g ai/ha) of 10 and a Plant response rating ([1]; Preemergence, 31 g ai/ha) of 0. For the same molecule, the Plant response rating ([1]; Preemergence, 62 g ai/ha) was 0, the Plant response rating ([1]; Preemergence, 125 g ai/ha) was 0 and the Plant response rating ([1]; Preemergence, 250 g ai/ha) was 15. For the same molecule, the Plant response rating ([1]; Preemergence, 500 g ai/ha) was 45, the Plant response rating ([2]; Postemergence, 31 g ai/ha) was 30 and the Plant response rating ([2]; Postemergence, 62 g ai/ha) was 80. The Plant response rating ([2]; Postemergence, 125 g ai/ha) was 100, the Plant response rating ([2]; Postemergence, 250 g ai/ha) was 40 and the Plant response rating ([2]; Postemergence, 500 g ai/ha) was 100. It also gave a Plant response rating ([2]; Preemergence, 31 g ai/ha) of 100, a Plant response rating ([2]; Preemergence, 62 g ai/ha) of 100 and a Plant response rating ([2]; Preemergence, 125 g ai/ha) of 100. It also gave a Plant response rating ([2]; Preemergence, 250 g ai/ha) of 100, a Plant response rating ([2]; Preemergence, 500 g ai/ha) of 100 and a Plant response rating ([3]; Postemergence, 62 g ai/ha) of 20. The Plant response rating ([3]; Postemergence, 250 g ai/ha) was 50, the Plant response rating ([3]; Preemergence, 62 g ai/ha) was 20 and the Plant response rating ([3]; Preemergence, 125 g ai/ha) was 100. For the same molecule, the Plant response rating ([3]; Preemergence, 250 g ai/ha) was 100, the Plant response rating ([3]; Preemergence, 500 g ai/ha) was 100 and the Plant response rating ([4]; Postemergence, 31 g ai/ha) was 20. The Plant response rating ([4]; Postemergence, 62 g ai/ha) was 20, the Plant response rating ([4]; Postemergence, 125 g ai/ha) was 30 and the Plant response rating ([4]; Postemergence, 250 g ai/ha) was 80. It also gave a Plant response rating ([4]; Postemergence, 500 g ai/ha) of 80, a Plant response rating ([4]; Preemergence, 62 g ai/ha) of 40 and a Plant response rating ([4]; Preemergence, 250 g ai/ha) of 95. For the same molecule, the Plant response rating ([4]; Preemergence, 500 g ai/ha) was 95, the Plant response rating ([5]; Postemergence, 31 g ai/ha) was 20 and the Plant response rating ([5]; Postemergence, 62 g ai/ha) was 20. For the same molecule, the Plant response rating ([5]; Postemergence, 125 g ai/ha) was 40, the Plant response rating ([5]; Postemergence, 250 g ai/ha) was 40 and the Plant response rating ([5]; Postemergence, 500 g ai/ha) was 45. The Plant response rating ([5]; Preemergence, 31 g ai/ha) was 0, the Plant response rating ([5]; Preemergence, 62 g ai/ha) was 0 and the Plant response rating ([5]; Preemergence, 125 g ai/ha) was 20. It also gave a Plant response rating ([5]; Preemergence, 250 g ai/ha) of 90, a Plant response rating ([5]; Preemergence, 500 g ai/ha) of 100 and a Plant response rating ([6]; Postemergence, 31 g ai/ha) of 0. For the same molecule, the Plant response rating ([6]; Postemergence, 62 g ai/ha) was 5, the Plant response rating ([6]; Postemergence, 125 g ai/ha) was 5 and the Plant response rating ([6]; Postemergence, 250 g ai/ha) was 10. It also gave a Plant response rating ([6]; Postemergence, 500 g ai/ha) of 10, a Plant response rating ([6]; Preemergence, 31 g ai/ha) of 0 and a Plant response rating ([6]; Preemergence, 62 g ai/ha) of 0. It also gave a Plant response rating ([6]; Preemergence, 125 g ai/ha) of 10, a Plant response rating ([6]; Preemergence, 250 g ai/ha) of 15 and a Plant response rating ([6]; Preemergence, 500 g ai/ha) of 75.
For `Cc1cc(=O)n(-c2ccc(C(F)(F)F)cc2)nc1Cc1ccnc(C(F)(F)F)c1` [Compound 2, 5-methyl-2-[4-(trifluoromethyl)phenyl]-6-[[2-(trifluoromethyl)-4-pyridinyl]methyl]-3(2H)-pyridazinone], the Plant response rating ([1]; Postemergence, 31 g ai/ha) was 10, the Plant response rating ([1]; Postemergence, 62 g ai/ha) was 15 and the Plant response rating ([1]; Postemergence, 125 g ai/ha) was 20. For the same molecule, the Plant response rating ([1]; Postemergence, 250 g ai/ha) was 20, the Plant response rating ([1]; Postemergence, 500 g ai/ha) was 30 and the Plant response rating ([1]; Preemergence, 31 g ai/ha) was 0. For the same molecule, the Plant response rating ([1]; Preemergence, 62 g ai/ha) was 0, the Plant response rating ([1]; Preemergence, 125 g ai/ha) was 10 and the Plant response rating ([1]; Preemergence, 250 g ai/ha) was 30. For the same molecule, the Plant response rating ([1]; Preemergence, 500 g ai/ha) was 100, the Plant response rating ([2]; Postemergence, 31 g ai/ha) was 100 and the Plant response rating ([2]; Postemergence, 62 g ai/ha) was 100. For the same molecule, the Plant response rating ([2]; Postemergence, 125 g ai/ha) was 100, the Plant response rating ([2]; Postemergence, 250 g ai/ha) was 100 and the Plant response rating ([2]; Postemergence, 500 g ai/ha) was 100. The Plant response rating ([2]; Preemergence, 31 g ai/ha) was 100, the Plant response rating ([2]; Preemergence, 62 g ai/ha) was 100 and the Plant response rating ([2]; Preemergence, 125 g ai/ha) was 100. For the same molecule, the Plant response rating ([2]; Preemergence, 250 g ai/ha) was 100, the Plant response rating ([2]; Preemergence, 500 g ai/ha) was 100 and the Plant response rating ([3]; Postemergence, 62 g ai/ha) was 25. For the same molecule, the Plant response rating ([3]; Postemergence, 250 g ai/ha) was 80, the Plant response rating ([3]; Postemergence, 500 g ai/ha) was 100 and the Plant response rating ([3]; Preemergence, 62 g ai/ha) was 0. For the same molecule, the Plant response rating ([3]; Preemergence, 125 g ai/ha) was 100, the Plant response rating ([3]; Preemergence, 250 g ai/ha) was 100 and the Plant response rating ([3]; Preemergence, 500 g ai/ha) was 100. For the same molecule, the Plant response rating ([4]; Postemergence, 31 g ai/ha) was 10, the Plant response rating ([4]; Postemergence, 62 g ai/ha) was 70 and the Plant response rating ([4]; Postemergence, 125 g ai/ha) was 80. For the same molecule, the Plant response rating ([4]; Postemergence, 250 g ai/ha) was 100, the Plant response rating ([4]; Postemergence, 500 g ai/ha) was 100 and the Plant response rating ([4]; Preemergence, 31 g ai/ha) was 0. The Plant response rating ([4]; Preemergence, 62 g ai/ha) was 100, the Plant response rating ([4]; Preemergence, 125 g ai/ha) was 100 and the Plant response rating ([4]; Preemergence, 250 g ai/ha) was 100. For the same molecule, the Plant response rating ([4]; Preemergence, 500 g ai/ha) was 100, the Plant response rating ([5]; Postemergence, 31 g ai/ha) was 20 and the Plant response rating ([5]; Postemergence, 62 g ai/ha) was 20. For the same molecule, the Plant response rating ([5]; Postemergence, 125 g ai/ha) was 40, the Plant response rating ([5]; Postemergence, 250 g ai/ha) was 80 and the Plant response rating ([5]; Postemergence, 500 g ai/ha) was 90. For the same molecule, the Plant response rating ([5]; Preemergence, 31 g ai/ha) was 20, the Plant response rating ([5]; Preemergence, 62 g ai/ha) was 75 and the Plant response rating ([5]; Preemergence, 125 g ai/ha) was 75. It also gave a Plant response rating ([5]; Preemergence, 250 g ai/ha) of 90, a Plant response rating ([5]; Preemergence, 500 g ai/ha) of 90 and a Plant response rating ([6]; Postemergence, 31 g ai/ha) of 10. For the same molecule, the Plant response rating ([6]; Postemergence, 62 g ai/ha) was 10, the Plant response rating ([6]; Postemergence, 125 g ai/ha) was 10 and the Plant response rating ([6]; Postemergence, 250 g ai/ha) was 15. It also gave a Plant response rating ([6]; Postemergence, 500 g ai/ha) of 20, a Plant response rating ([6]; Preemergence, 31 g ai/ha) of 0 and a Plant response rating ([6]; Preemergence, 62 g ai/ha) of 0. For the same molecule, the Plant response rating ([6]; Preemergence, 125 g ai/ha) was 15, the Plant response rating ([6]; Preemergence, 250 g ai/ha) was 30 and the Plant response rating ([6]; Preemergence, 500 g ai/ha) was 50.
